Patent publication US20240425478A1, “CYCLOPENTYLPYRAZOLE CDK2 INHIBITORS” (Genentech, Inc., priority 2021, published 2024)
Where two headings read alike, the source gives them in different places.

Columns and labels:
[1] = target: T1, Cyclin Dependent Kinase 2/Cyclin E1 (CDK2-cycE1) (Homo sapiens, UniProt P24941); experiment: CDK2-cycE1 TR-FRET (LANCE) enzyme assay; format: biochemical; conditions: for Ki: enzymatic assay, read-out: CDK2 Ki; for FS CDK1/CDK2 / FS CDK4/CDK2: fold selectivity; for increased fold-selectivity CDK4/CDK2 over Comparator C: (+) sign after FS CDK4/CDK2;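 for improvement in potency against CDK2 (Ki) over Comparator C: fold lower CDK2 Ki than comparator c (Ki 0.032 µM)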
T1 construct: purchased ProQinase 0050-0055-1
Method: (§1) Cyclin Dependent Kinase 1/Cyclin A2 (CDK1-cycA2), Cyclin Dependent Kinase 2/Cyclin E1 (CDK2-cycE1), Cyclin Dependent Kinase 4/Cyclin D3 (CDK4-cycD3) and Cyclin Dependent Kinase 6/Cyclin D3 (CDK6-cycD3) enzyme assays were carried out as described below.
(ii) CDK2-cycE1 TR-FRET (LANCE®)
(§2) An Echo acoustic dispenser is used to create dose responses of compound dissolved in DMSO into a 384-well microplate. A 5 μL volume of enzyme mix is added to the well, and pre-incubated with compound for 30 minutes. […] Buffer conditions are 50 mM HEPES, pH 7.5, 10 mM MgCl2, 2 mM TCEP, 0.05% BGG and 0.01% Brij 35. The reaction is quenched with 5 μL of EDTA in detection buffer (15 mM [EDTA final]). Finally, a 5 μL TR-FRET detection mix is added to the quenched reaction, which includes Europium labeled anti-phospho-MBP. […] Signal is a ratio of the Acceptor and Donor fluorescence. Inhibition constants are calculated via the Morrison equation. Enzyme source of CDK2-cycE1 is ProQinase, catalog #: 0050-0055-1.

[2] = test system: OVISE (JCRB1043, CCNE1-amplified); experiment: OVISE EdU incorporation cell proliferation assay (CDK2-dependent); format: cell-based; conditions: for IC50: cellular assay, read-out: CDK2 OVISE IC50; for FS SKOV-3/OVISE: fold selectivity; for increased fold-selectivity SKOV-3/OVISE over Comparator C: (+) sign after FS SKOV-3/OVISE; for improvement in CDK2 OVISE cell potency over Comparator C: in brackets after OVISE IC50, Comparator C 5.5 μM
Method: (§3) (i) OVISE and SKOV-3 EdU Incorporation Cell Proliferation Assays
(§4) Ovarian cancer cell proliferation is measured by incorporation of EdU (5-ethynyl-2′-deoxyuridine) into newly synthesized DNA. CDK2-dependent proliferation is determined using OVISE (JCRB1043, CCNE1-amplified) while CDK4/6-dependent effect is determined with SKOV-3 (ATCC HTB-77) which is not CCNE1-amplified.
(§5) Cells are plated in 384-well plates in RPMI medium supplemented with 10% FBS. Compounds are added at desired concentrations with a final DMSO content of 0.5%, and cells incubated at 37° C./5% CO2 for 16 hours. EdU (Life Technologies) is added to a final concentration of 0.5 μM and incubation continued for 8 hours, followed by fixation with 4% paraformaldehyde. […] Images are acquired using Yokogawa CQ1 imaging cytometer with a 10×objective. […] The IC50 for inhibition of cell division is determined by fitting the fraction of EdU-positive cells as a function of compound dose using a 4-parameter logistic model.

SKOV-3 (ATCC HTB-77) = experiment: SKOV-3 EdU incorporation cell proliferation assay (CDK4/6-dependent); format: cell-based; conditions: Homo sapiens, cellular assay, read-out: CDK4/6 SKOV-3 IC50
Method: as §3, §4, §5

[3] = target: T2, Cyclin Dependent Kinase 4/Cyclin D3 (CDK4-cycD3) (Homo sapiens, UniProt P11802); experiment: CDK4-cycD3 TR-FRET (LANCE) enzyme assay; format: biochemical; conditions: Table O, enzymatic assay
T2 construct: purchased Carna Biosciences 04-105
Method: as §1
(iii) CDK4-cycD3 TR-FRET (LANCE®)
as §2, with “anti-phospho-4E-BP1.” for “anti-phospho-MBP.”, “equation.” for “equation. Enzyme source of CDK2-cycE1 is ProQinase, catalog #: 0050-0055-1.”

[4] = target: T3, Cyclin Dependent Kinase 1/Cyclin A2 (CDK1-cycA2) (Homo sapiens, UniProt P06493); experiment: CDK1-cycA2 TR-FRET (Lance) enzyme assay; format: biochemical; conditions: Table O, enzymatic assay
T3 construct: purchased ProQinase 0134-0054-1
Method: as §1
(1) CDK1-cycA2 TR-FRET (Lance®)
as §2, with “anti-phospho-4E-BP1.” for “anti-phospho-MBP.”, “equation.” for “equation. Enzyme source of CDK2-cycE1 is ProQinase, catalog #: 0050-0055-1.”

[5] = Table O, enzymatic CDK1 Ki over CDK2 Ki
[6] = Table O, enzymatic CDK4 Ki over CDK2 Ki
[7] = Table O, cellular SKOV-3 IC50 over OVISE IC50

T3 sequence (P06493 whole entry): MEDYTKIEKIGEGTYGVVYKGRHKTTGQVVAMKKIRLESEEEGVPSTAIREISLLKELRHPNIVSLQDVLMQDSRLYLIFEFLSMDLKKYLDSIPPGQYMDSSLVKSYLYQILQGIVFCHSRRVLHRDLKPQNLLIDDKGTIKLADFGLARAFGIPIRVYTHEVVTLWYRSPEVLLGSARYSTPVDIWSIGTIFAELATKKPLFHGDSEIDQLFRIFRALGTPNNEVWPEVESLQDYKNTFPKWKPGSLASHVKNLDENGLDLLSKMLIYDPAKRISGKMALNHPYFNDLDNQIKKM
T3 sequence (P20248 whole entry partner): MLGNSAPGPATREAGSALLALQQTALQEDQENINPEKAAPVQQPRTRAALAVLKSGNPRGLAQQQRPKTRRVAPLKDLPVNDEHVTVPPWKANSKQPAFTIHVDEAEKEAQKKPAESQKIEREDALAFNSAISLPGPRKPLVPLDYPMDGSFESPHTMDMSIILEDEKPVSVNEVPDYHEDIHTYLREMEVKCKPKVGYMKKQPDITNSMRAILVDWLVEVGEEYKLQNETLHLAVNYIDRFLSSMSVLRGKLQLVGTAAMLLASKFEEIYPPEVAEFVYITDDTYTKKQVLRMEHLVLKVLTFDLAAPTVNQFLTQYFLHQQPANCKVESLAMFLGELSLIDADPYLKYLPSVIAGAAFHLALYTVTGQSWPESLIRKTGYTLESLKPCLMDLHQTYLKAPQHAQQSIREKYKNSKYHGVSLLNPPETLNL
T2 sequence (P11802 whole entry): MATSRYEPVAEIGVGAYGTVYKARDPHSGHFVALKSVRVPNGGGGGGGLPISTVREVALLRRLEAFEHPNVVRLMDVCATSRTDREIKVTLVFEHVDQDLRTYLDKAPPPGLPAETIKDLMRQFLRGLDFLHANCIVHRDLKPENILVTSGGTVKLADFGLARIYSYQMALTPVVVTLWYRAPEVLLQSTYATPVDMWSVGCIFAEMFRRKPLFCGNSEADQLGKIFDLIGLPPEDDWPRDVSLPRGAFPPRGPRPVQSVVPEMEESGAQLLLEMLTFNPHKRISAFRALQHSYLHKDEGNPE
T2 sequence (P30281 whole entry partner): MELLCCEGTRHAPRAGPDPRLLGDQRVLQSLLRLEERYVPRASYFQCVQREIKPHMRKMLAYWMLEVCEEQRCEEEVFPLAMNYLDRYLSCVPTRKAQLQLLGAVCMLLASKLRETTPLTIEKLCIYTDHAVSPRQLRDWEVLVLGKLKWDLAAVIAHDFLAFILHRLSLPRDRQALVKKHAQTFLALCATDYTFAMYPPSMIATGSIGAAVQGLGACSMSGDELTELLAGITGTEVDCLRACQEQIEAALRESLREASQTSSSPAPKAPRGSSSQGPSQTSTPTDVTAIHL

| Ki ([1]; Table O) | FS CDK1/CDK2 [1, 5] | FS CDK4/CDK2 [1, 6] | IC50 (SKOV-3 (ATCC HTB-77); SK-OV-3, Table O) | Ki [3] | Ki [4] | improvement in potency against CDK2 (Ki) over Comparator C ([1]; Table Q, in brackets after CDK2 Ki, Comparator C 0.032 μM) | Structure (SMILES) | improvement in potency against CDK2 (Ki) over Comparator C [1] | increased fold-selectivity CDK4/CDK2 over Comparator C ([1]; Table Q) | Ki ([1]; Table Q) | FS CDK1/CDK2 ([1]; Table Q, enzymatic) | FS CDK4/CDK2 ([1]; Table Q, enzymatic) | IC50 ([2]; Table O) | FS SKOV-3/OVISE [2, 7] | increased fold-selectivity SKOV-3/OVISE over Comparator C ([2]; Table Q) | FS SKOV-3/OVISE ([2]; Table Q, cellular) | improvement in CDK2 OVISE cell potency over Comparator C ([2]; Table Q) | IC50 (SKOV-3 (ATCC HTB-77); SK-OV-3, Table Q) | increased fold-selectivity CDK1/CDK2 over Comparator C ([1]; Table Q, (+) sign after FS CDK1/CDK2) |
| --- | --- | --- | --- | --- | --- | --- | --- | --- | --- | --- | --- | --- | --- | --- | --- | --- | --- | --- | --- |
| 10 nM | 20 | 23 | 11000 nM | 230 nM | 200 nM |  | CC(C)NC(=O)O[C@@H]1CC[C@H](c2cc(Nc3ccc(-n4ccnc4)nc3)n[nH]2)C1 [Example 2J, (1R,3S)-3-(3-((6-(1H-imidazol-1-yl)pyridin-3-yl)amino)-1H-pyrazol-5-yl)cyclopentyl isopropylcarbamate] |  |  |  |  |  | 440 nM | 25 |  |  |  |  |  |
| 77 nM | 16 | 16 | 3.2 nM | 1200 nM | 1200 nM |  | COc1ccc(Nc2cc([C@H]3CC[C@@H](OC(=O)NC(C)C)C3)[nH]n2)nn1 [Example 2JJ, (1R,3S)-3-(3-((6-methoxypyridazin-3-yl)amino)-1H-pyrazol-5-yl)cyclopentyl isopropylcarbamate] |  |  |  |  |  | 4100 nM | <1 |  |  |  |  |  |
| 41 nM | 16 | 37 | > 20000 nM | 1500 nM | 670 nM | 0.8 fold | CC(C)NC(=O)O[C@@H]1CC[C@H](c2cc(Nc3ncnc(N(C)C)n3)n[nH]2)C1 [Example 2Q, (1R,3S)-3-(3-((4-(dimethylamino)-1,3,5-triazin-2-yl)amino)-1H-pyrazol-5-yl)cyclopentyl isopropylcarbamate] |  | (+) (The (+) sign in Table Q signifies desirable increased fold-selectivity of the exemplary compounds over Comparator C) | 41 nM | 16 | 37 | 2400 nM | >8.3 | (+) (The (+) sign in Table Q signifies desirable increased fold-selectivity of the exemplary compounds over Comparator C) | > 8.3 | 2.3 fold | > 20000 nM |  |

The remaining lines, values behind:

| Structure (SMILES) | Ki ([1]; Table O) | FS CDK1/CDK2 [1, 5] | FS CDK4/CDK2 [1, 6] | IC50 (SKOV-3 (ATCC HTB-77); SK-OV-3, Table O) | Ki [3] | Ki [4] | improvement in potency against CDK2 (Ki) over Comparator C ([1]; Table Q, in brackets after CDK2 Ki, Comparator C 0.032 μM) | improvement in potency against CDK2 (Ki) over Comparator C [1] | increased fold-selectivity CDK4/CDK2 over Comparator C ([1]; Table Q) | Ki ([1]; Table Q) | FS CDK1/CDK2 ([1]; Table Q, enzymatic) | FS CDK4/CDK2 ([1]; Table Q, enzymatic) | IC50 ([2]; Table O) | FS SKOV-3/OVISE [2, 7] | increased fold-selectivity SKOV-3/OVISE over Comparator C ([2]; Table Q) | FS SKOV-3/OVISE ([2]; Table Q, cellular) | improvement in CDK2 OVISE cell potency over Comparator C ([2]; Table Q) | IC50 (SKOV-3 (ATCC HTB-77); SK-OV-3, Table Q) | increased fold-selectivity CDK1/CDK2 over Comparator C ([1]; Table Q, (+) sign after FS CDK1/CDK2) |
| --- | --- | --- | --- | --- | --- | --- | --- | --- | --- | --- | --- | --- | --- | --- | --- | --- | --- | --- | --- |
| CC(C)NC(=O)O[C@@H]1CC[C@H](c2cc(Nc3ccc(-n4cccn4)nc3)n[nH]2)C1 [Example 2D, (1R,3S)-3-(3-((6-(1H-pyrazol-1-yl)pyridin-3-yl)amino)-1H-pyrazol-5-yl)cyclopentyl isopropylcarbamate] | 14 nM | 25 | 34 | 14000 nM | 480 nM | 350 nM |  | 2.3 fold | (+) (The (+) sign in Table Q signifies desirable increased fold-selectivity of the exemplary compounds over Comparator C) | 14 nM | 25 | 34 | 700 nM | 20 | (+) (The (+) sign in Table Q signifies desirable increased fold-selectivity of the exemplary compounds over Comparator C) | 20 | 7.9 fold | 14000 nM |  |
| CC(C)NC(=O)O[C@@H]1CC[C@H](c2cc(Nc3ccc(-n4cccn4)cn3)n[nH]2)C1 [Example 2DD, (1R,3S)-3-(3-((5-(1H-pyrazol-1-yl)pyridin-2-yl)amino)-1H-pyrazol-5-yl)cyclopentyl isopropylcarbamate] | 13 nM | 52 | 27 | > 20000 nM | 350 nM | 680 nM |  | 2.5 fold | (+) (The (+) sign in Table Q signifies desirable increased fold-selectivity of the exemplary compounds over Comparator C) | 13 nM | 52 | 27 | 610 nM | 23 | (+) (The (+) sign in Table Q signifies desirable increased fold-selectivity of the exemplary compounds over Comparator C) | 23 | 9 fold | 14000 nM | (+) (The (+) sign in Table Q signifies desirable increased fold-selectivity of the exemplary compounds over Comparator C) |
| COc1ncc(Nc2cc([C@H]3CC[C@@H](OC(=O)NC(C)C)C3)[nH]n2)cn1 [Example 2FF, (1R,3S)-3-(3-((2-methoxypyrimidin-5-yl)amino)-1H-pyrazol-5-yl)cyclopentyl isopropylcarbamate] | 14 nM | 23 | 68 | > 20000 nM | 950 nM | 320 nM |  |  |  |  |  |  | 1200 nM | >17 |  |  |  |  |  |
| CNc1ncc(Nc2cc([C@H]3CC[C@@H](OC(=O)NC(C)C)C3)[nH]n2)cn1 [Example 2GG, (1R,3S)-3-(3-((2-(methylamino)pyrimidin-5-yl)amino)-1H-pyrazol-5-yl)cyclopentyl isopropylcarbamate] | 480 nM | 18 | 31 | > 20000 nM | 15000 nM | 8800 nM |  |  |  |  |  |  | > 20000 nM | 1 |  |  |  |  |  |
| COCCn1nc(Nc2cc([C@H]3CC[C@@H](OC(=O)NC(C)C)C3)[nH]n2)ccc1=O [Example 2II, (1R,3S)-3-(3-((1-(2-methoxyethyl)-6-oxo-1,6-dihydropyridazin-3-y1)amino)-1H-pyrazol-5-y1)cyclopentyl isopropylcarbamate] | 9.6 nM | 11 | 99 | > 20000 nM | 950 nM | 110 nM |  |  |  |  |  |  | 2600 nM | >7.7 |  |  |  |  |  |
| CC(C)NC(=O)O[C@@H]1CC[C@H](c2cc(Nc3cncc(N(C)C)n3)n[nH]2)C1 [Example 2P, (1R,3S)-3-(3-((6-(dimethylamino)pyrazin-2-yl)amino)-1H-pyrazol-5-yl)cyclopentyl isopropylcarbamate] | 4.2 nM | 7.9 | 43 | 5300 nM | 180 nM | 33 nM |  | 8 fold | (+) (The (+) sign in Table Q signifies desirable increased fold-selectivity of the exemplary compounds over Comparator C) | 4.2 nM | 7.9 | 43 | 370 nM | 14 | (+) (The (+) sign in Table Q signifies desirable increased fold-selectivity of the exemplary compounds over Comparator C) | 14 | 14.9 fold | 5300 nM |  |
